Consider two compounds from BindingDB's records for doi:10.1016/j.bmc.2010.08.049 (University of Wisconsin-Milwaukee, 2010).

Assay [1] deals with T1, Gamma-aminobutyric acid receptor subunit alpha-3/beta-3/gamma-2 (Homo sapiens, UniProt P34903+P18507+P28472).
T1 sequence (P34903 whole entry): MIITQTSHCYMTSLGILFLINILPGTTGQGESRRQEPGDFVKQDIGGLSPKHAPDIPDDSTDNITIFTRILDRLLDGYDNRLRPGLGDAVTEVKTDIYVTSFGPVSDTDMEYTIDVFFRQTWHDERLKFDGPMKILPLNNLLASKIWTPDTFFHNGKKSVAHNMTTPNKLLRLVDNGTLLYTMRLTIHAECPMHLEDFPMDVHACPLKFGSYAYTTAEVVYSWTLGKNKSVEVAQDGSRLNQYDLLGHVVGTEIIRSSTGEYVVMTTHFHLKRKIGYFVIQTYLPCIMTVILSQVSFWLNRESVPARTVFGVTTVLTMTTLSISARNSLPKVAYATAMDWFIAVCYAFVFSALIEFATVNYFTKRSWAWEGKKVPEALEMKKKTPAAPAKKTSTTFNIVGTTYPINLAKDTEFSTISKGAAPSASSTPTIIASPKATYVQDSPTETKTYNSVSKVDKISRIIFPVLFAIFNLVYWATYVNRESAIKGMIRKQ
T1 sequence (P18507 whole entry): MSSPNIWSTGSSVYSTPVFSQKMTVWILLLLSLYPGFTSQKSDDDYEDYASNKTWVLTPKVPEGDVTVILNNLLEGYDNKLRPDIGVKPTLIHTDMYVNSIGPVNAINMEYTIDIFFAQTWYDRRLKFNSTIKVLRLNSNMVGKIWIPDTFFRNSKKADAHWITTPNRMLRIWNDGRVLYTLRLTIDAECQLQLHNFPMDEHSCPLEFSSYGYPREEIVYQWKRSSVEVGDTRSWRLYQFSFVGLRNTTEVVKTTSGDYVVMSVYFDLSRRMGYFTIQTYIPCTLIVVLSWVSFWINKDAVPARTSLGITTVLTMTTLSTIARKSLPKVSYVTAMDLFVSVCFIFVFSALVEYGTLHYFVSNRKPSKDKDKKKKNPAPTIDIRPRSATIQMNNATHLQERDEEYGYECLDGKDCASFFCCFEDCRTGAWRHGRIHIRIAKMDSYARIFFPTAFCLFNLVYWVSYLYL
T1 sequence (P28472 whole entry): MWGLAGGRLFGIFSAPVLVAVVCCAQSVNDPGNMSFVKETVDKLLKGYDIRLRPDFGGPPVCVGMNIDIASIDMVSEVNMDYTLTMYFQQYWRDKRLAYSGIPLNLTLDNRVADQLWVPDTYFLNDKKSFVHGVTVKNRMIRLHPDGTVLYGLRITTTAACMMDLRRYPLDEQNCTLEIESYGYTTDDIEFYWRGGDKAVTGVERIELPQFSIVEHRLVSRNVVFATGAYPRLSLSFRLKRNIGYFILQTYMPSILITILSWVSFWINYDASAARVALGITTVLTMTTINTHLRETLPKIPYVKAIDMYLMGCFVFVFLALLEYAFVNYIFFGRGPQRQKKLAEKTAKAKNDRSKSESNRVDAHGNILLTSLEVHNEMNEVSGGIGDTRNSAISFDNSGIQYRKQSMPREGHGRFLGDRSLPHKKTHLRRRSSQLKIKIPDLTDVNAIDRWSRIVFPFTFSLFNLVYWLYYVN
In words: Displacement of [3H]flunitrazepam from human recombinant GABAA alpha-3-beta-3-gamma-2 receptor expressed in HEK cells by liquid scintillation counting. (In general: Displacement assays read how much labelled ligand stays bound in the presence of the test substance.)

Assay [2] addresses T2, GABA-A receptor; alpha-5/beta-3/gamma-2 (Homo sapiens, UniProt P31644+P18507+P28472).
T2 sequence (P31644 whole entry): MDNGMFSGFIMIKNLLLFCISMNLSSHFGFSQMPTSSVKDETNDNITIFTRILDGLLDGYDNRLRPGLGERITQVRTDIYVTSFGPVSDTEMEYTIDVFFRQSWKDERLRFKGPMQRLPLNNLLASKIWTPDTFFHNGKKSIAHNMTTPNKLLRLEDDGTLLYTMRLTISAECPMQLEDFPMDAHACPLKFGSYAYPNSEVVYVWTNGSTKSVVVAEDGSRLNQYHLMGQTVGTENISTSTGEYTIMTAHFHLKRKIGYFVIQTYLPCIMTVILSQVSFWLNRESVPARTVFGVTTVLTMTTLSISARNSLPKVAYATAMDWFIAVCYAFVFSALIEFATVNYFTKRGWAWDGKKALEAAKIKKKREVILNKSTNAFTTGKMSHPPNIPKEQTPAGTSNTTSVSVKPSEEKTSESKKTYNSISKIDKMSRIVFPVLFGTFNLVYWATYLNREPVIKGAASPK
T2 sequence (P18507 whole entry): T1 sequence (P18507 whole entry)
T2 sequence (P28472 whole entry): T1 sequence (P28472 whole entry)
In words: Displacement of [3H]flunitrazepam from human recombinant GABAA alpha-5-beta-3-gamma-2 receptor expressed in HEK cells by liquid scintillation counting.

For assay [3], the target named is T3, Gamma-aminobutyric acid receptor subunit alpha-1/beta-3/gamma-2 (Homo sapiens, UniProt P14867+P18507+P28472).
T3 sequence (P14867 whole entry): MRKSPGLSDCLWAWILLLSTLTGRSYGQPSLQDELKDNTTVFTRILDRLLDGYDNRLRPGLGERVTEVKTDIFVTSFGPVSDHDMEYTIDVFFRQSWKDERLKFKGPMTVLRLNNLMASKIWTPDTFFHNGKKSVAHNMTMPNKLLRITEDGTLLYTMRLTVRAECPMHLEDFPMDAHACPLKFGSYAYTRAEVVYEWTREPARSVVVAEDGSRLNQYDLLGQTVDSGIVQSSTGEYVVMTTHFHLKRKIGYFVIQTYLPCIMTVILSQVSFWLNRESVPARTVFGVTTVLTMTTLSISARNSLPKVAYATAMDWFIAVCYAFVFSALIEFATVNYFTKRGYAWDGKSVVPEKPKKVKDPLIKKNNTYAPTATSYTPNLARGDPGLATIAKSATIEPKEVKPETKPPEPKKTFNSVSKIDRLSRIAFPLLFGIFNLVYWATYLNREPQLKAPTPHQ
T3 sequence (P18507 whole entry): T1 sequence (P18507 whole entry)
T3 sequence (P28472 whole entry): T1 sequence (P28472 whole entry)
The assay is described as follows: Displacement of [3H]flunitrazepam from human recombinant GABAA alpha-1-beta-3-gamma-2 receptor expressed in HEK cells by liquid scintillation counting.

Assay [4] deals with T4, GABA-A receptor; alpha-2/beta-3/gamma-2 (Homo sapiens, UniProt P47869+P18507+P28472).
T4 sequence (P47869 whole entry): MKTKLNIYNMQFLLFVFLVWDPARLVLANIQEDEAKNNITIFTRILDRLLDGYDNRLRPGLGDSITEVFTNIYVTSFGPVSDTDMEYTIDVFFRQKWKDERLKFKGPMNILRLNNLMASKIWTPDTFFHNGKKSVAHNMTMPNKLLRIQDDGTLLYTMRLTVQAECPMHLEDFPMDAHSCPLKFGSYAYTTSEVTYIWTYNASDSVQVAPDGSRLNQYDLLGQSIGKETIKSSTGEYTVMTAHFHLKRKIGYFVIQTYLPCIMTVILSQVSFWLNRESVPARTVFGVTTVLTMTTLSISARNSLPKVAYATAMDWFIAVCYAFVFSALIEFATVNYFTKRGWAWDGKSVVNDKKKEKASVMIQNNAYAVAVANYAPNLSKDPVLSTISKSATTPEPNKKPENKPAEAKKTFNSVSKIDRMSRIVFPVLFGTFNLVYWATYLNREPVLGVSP
T4 sequence (P18507 whole entry): T1 sequence (P18507 whole entry)
T4 sequence (P28472 whole entry): T1 sequence (P28472 whole entry)
The assay is described as follows: Displacement of [3H]flunitrazepam from human recombinant GABAA alpha-2-beta-3-gamma-2 receptor expressed in HEK cells by liquid scintillation counting.

The target of assay [5] is Gamma-aminobutyric acid receptor subunit alpha-6/beta-3/gamma-2 (Homo sapiens, UniProt Q16445+P18507+P28472). The assay is described as follows: Displacement of [3H]flunitrazepam from human recombinant GABAA alpha-6-beta-3-gamma-2 receptor expressed in HEK cells by liquid scintillation counting.
The target in assay [6] is GABA A receptor alpha-4/beta-3/gamma-2 (Homo sapiens, UniProt P48169+P18507+P28472). In words: Displacement of [3H]flunitrazepam from human recombinant GABAA alpha-4-beta-3-gamma-2 receptor expressed in HEK cells by liquid scintillation counting.
Chain of GABA A receptor alpha-4/beta-3/gamma-2 (P48169 whole entry, one chain of several): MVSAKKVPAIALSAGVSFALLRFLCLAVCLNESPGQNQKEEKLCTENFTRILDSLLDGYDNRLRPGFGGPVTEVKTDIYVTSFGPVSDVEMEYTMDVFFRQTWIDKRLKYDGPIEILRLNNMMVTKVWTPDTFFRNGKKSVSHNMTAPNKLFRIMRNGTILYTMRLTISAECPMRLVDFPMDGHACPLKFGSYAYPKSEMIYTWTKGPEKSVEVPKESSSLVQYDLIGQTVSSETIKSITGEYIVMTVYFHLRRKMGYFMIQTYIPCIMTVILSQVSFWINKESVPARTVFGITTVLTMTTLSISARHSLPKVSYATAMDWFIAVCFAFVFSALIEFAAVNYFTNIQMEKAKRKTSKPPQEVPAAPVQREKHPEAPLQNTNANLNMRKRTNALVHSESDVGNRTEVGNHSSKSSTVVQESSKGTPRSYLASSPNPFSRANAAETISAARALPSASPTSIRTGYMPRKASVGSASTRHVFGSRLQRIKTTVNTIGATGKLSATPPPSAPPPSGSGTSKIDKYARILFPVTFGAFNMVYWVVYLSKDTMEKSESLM

Chain of Gamma-aminobutyric acid receptor subunit alpha-6/beta-3/gamma-2 (Q16445 whole entry, one chain of several): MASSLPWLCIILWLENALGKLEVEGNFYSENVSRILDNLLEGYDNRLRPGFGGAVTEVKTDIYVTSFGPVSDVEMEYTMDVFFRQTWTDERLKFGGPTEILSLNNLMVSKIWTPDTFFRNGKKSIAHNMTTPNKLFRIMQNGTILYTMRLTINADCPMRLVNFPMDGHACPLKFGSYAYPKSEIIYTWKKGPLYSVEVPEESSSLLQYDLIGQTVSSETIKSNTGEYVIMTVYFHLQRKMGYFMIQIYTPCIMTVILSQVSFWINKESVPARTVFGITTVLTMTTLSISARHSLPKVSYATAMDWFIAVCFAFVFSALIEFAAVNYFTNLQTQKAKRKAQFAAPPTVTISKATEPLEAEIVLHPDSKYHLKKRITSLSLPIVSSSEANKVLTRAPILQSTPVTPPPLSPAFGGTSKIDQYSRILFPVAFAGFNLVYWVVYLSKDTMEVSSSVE

In the case of `CCC(OC(=O)c1cc2c(cn1)[nH]c1ccccc12)C(F)(F)F` (stereo not given) [1,1,1-trifluorobutan-2-yl 9H-pyrido[3,4-b]indole-3-carboxylate], the Ki in assay [1], in assay [2], in assay [3] and in assay [4] was 1 µM in each case.
On to `CC(OC(=O)c1cc2c(cn1)[nH]c1ccccc12)C(Cl)(Cl)Cl` (stereo not given) [1,1,1-trichloropropan-2-yl 9H-pyrido[3,4-b]indole-3-carboxylate], for which the Ki (as a rule, a measure of affinity in units of concentration, obtained from inhibition or displacement) in assay [1] came to 2 µM; in assay [5], 5 µM; in assay [2], 2 µM; in assay [6], 3 µM; in assay [3] it was 2 µM; in assay [4] it was 2 µM.
